According to patent US8119630B2 (Arrow Therapeutics Limited, priority 2002, dated 2012):
Read-outs that look alike come from different tables or passages of the source.

Assays:
RSV = experiment: XTT assay, RSV-infected Vero cells; format: cell-based, Respiratory Syncytial Virus (RSV); details: Vero cells infected with RSV, m.o.i.≈0.2, 6 days at 33° C.
Procedure: Examples 1 to 74 and 83 to 124 were tested using the following protocol.
(§1) The inner 60 wells of 96 well tissue culture plates were seeded with Vero cells at 3×10^4 cells/well (1×10^4 cells/well for toxicity studies) in 100 or 150 μl of medium and incubated at 37° C. overnight or until nearing confluency. For primary screen, 25 μl compounds were added directly to 100 μl medium in single wells to duplicate plates. A third plate was prepared for simultaneous toxicity investigation.
(§2) For follow-up investigation, 70 μl of compound in duplicate wells were added directly to culture medium at 3.2× final concentration and ½ log serially diluted down columns of plate. A duplicate plate was prepared for simultaneous toxicity investigation.
(§3) Cells were infected with 25 μl RSV to give m.o.i.≈0.2. Some 100 μl of sterile distilled water were added to the outer wells of the plate and incubated at 33° C. for 6 days. Some 0.25 μl/ml PMS were added to stock XTT solution, final conc. […]. Then 25 μl warmed XTT/PMS solution were added to each well and incubated for 5 hours at 37° C. Plates were shaken (DynaTech Vari-Shaker) vigorously for 10 mins and allowed to cool for 15 mins before sealing. Absorbance at 450 nm was measured and data analysed using Microsoft Excel software.
Maximum OD450nm reading (uninfected, untreated control cells) corresponded to 100% inhibition. Minimum OD450nm readings (infected control cells) corresponded to 0% inhibition. Log 10 concentration was plotted against OD450nm and IC50 (Table 1) values were calculated from either reading 50% value from graph or using regression analysis.

Vero cells = experiment: Simultaneous toxicity investigation (XTT), Vero cells; format: cell-based; design: unit not given here
Procedure: as §1, §2
as §3, with “Some 100 μl of sterile distilled water were added to the outer wells of the plate and incubated at 33° C. for 6 days.” left out

[1] = human respiratory syncytial virus, Vero, 144 h, read-out: XTT IC50 (uM), Table 1

| Compound | IC50 (RSV; [1]) | also measured |
| --- | --- | --- |
| 1-(2-Chloro-6-methyl-phenyl)-3-(2-oxo-5-phenyl-2,3-dihydro-1H-benzo[e][1,4]diazepin-3-yl)-urea [Example 121] | – | IC50 (RSV; Table 2, Examples 83 to 124, read-out: XTT IC50): 4 µM; TC50 (2d) (Vero cells; Table 2, Examples 83 to 124, 2d): 60; TC50 (6d) (Vero cells; Table 2, Examples 83 to 124, 6d): 60 |
| O=C1Nc2ccccc2C(c2ccccc2)=NC1NCc1ccccc1[N+](=O)[O-] (stereo not drawn) [Example 42, 3-(2-Nitro-benzylamino)-5-phenyl-1,3-dihydro-benzo[e][1,4]diazepin-2-one] | 20 µM | – |
| O=C1Nc2ccccc2C(c2ccccc2)=NC1NCc1cccc([N+](=O)[O-])c1 (stereo not drawn) [Example 43, 3-(3-Nitro-benzylamino)-5-phenyl-1,3-dihydro-benzo[e][1,4]diazepin-2-one] | 30 µM | – |
| O=C1Nc2ccccc2C(c2ccccc2)=NC1NCc1ccc([N+](=O)[O-])cc1 (stereo not drawn) [Example 44, 3-(4-Nitro-benzylamino)-5-phenyl-1,3-dihydro-benzo[e][1,4]diazepin-2-one] | 10 µM | – |
| COc1ccccc1CNC1N=C(c2ccccc2)c2ccccc2NC1=O (stereo not drawn) [Example 45, 3-(2-Methoxy-benzylamino)-5-phenyl-1,3-dihydro-benzo[e][1,4]diazepin-2-one] | 20 µM | – |
| COc1cccc(CNC2N=C(c3ccccc3)c3ccccc3NC2=O)c1 (stereo not drawn) [Example 46, 3-(3-Methoxy-benzylamino)-5-phenyl-1,3-dihydro-benzo[e][1,4]diazepin-2-one] | 30 µM | – |
| O=C1Nc2ccccc2C(c2ccccc2)=NC1NCc1ccccc1C(F)(F)F (stereo not drawn) [Example 47, 5-Phenyl-3-(2-trifluoromethyl-benzylamino) 1,3-dihydro-benzo[e][1,4]diazepin-2-one] | 30 µM | – |
| O=C1Nc2ccccc2C(c2ccccc2)=NC1NCc1ccc(C(F)(F)F)cc1 (stereo not drawn) [Example 49, 5-Phenyl-3-(4-trifluoromethyl-benzylamino)-1,3-dihydro-benzo[e][1,4]diazepin-2-one] | 50 µM | – |
| O=C1Nc2ccccc2C(c2ccccc2)=NC1NCc1ccco1 (stereo not drawn) [Example 50, 3-[(Furan-2-ylmethyl)-amino]-5-phenyl-1,3-dihydro-benzo[e][1,4]diazepin-2-one] | 50 µM | – |
| CC(=O)NC1N=C(c2ccccc2)c2cc(Cl)ccc2NC1=O (stereo not drawn) [Example 51, N-(7-Chloro-2-oxo-5-phenyl-2,3-dihydro-1H-benzo[e][1,4]diazepin-3-yl)-acetamide] | 5 µM | – |
| CC(C)C(=O)NC1N=C(c2ccccc2)c2cc(Cl)ccc2NC1=O (stereo not drawn) [Example 52, N-(7-Chloro-2-oxo-5-phenyl-2,3-dihydro-1H-benzo[e][1,4]diazepin-3-yl)-isobutyramide] | 3 µM | – |
| CS(=O)(=O)NC1N=C(c2ccccc2)c2cc(Cl)ccc2NC1=O (stereo not drawn) [Example 53, N-(7-Chloro-2-oxo-5-phenyl-2,3-dihydro-1H-benzo[e][1,4]diazepin-3-yl)-methanesulformide] | – | IC50 (RSV; Table 1, read-out: XTT IC50): 5 µM |
| O=C(NC1N=C(c2ccccc2)c2cc(Cl)ccc2NC1=O)c1ccco1 (stereo not drawn) [Example 54, Furan-2-carboxylic acid (7-chloro-2-oxo-5-phenyl-2,3-dihydro-1H-benzo[e][1,4]diazepin-3-yl)-amide] | 1.5 µM | – |
| O=C(NC1N=C(c2ccccc2)c2cc(Cl)ccc2NC1=O)c1cccs1 (stereo not drawn) [Example 55, Thiophene-2-carboxylic acid (7-chloro-2-oxo-5-phenyl-2,3-dihydro-1H-benzo[e][1,4]diazepin-3-yl)-amide] | 3 µM | – |
| O=C(NC1N=C(c2ccccc2)c2cc(Cl)ccc2NC1=O)C1CCCCC1 (stereo not drawn) [Example 56, Cyclohexanecarboxylic acid (7-Chloro-2-oxo-5-phenyl-2,3-dihydro-1H-benzo[e][1,4]diazepin-3-yl)-amide] | 5 µM | – |
| COc1ccccc1C(=O)NC1N=C(c2ccccc2)c2cc(Cl)ccc2NC1=O (stereo not drawn) [Example 57, N-(7-Chloro-2-oxo-5-phenyl-2,3-dihydro-1H-benzo[e][1,4]diazepin-3-yl)-2-methoxy-benzamide] | 0.7 µM | – |
| COc1ccc(C(=O)NC2N=C(c3ccccc3)c3cc(Cl)ccc3NC2=O)cc1 (stereo not drawn) [Example 58, N-(7-Chloro-2-oxo-5-phenyl-2,3-dihydro-1H-benzo[e][1,4]diazepin-3-yl)-4-methoxy-benzamide] | 1.2 µM | – |

| Compound | IC50 (RSV; [1]) | also measured |
| --- | --- | --- |
| O=C(NC1N=C(c2ccccc2)c2cc(Cl)ccc2NC1=O)c1ccccc1[N+](=O)[O-] (stereo not drawn) [Example 59, N-(7-Chloro-2-oxo-5-phenyl-2,3-dihydro-1H-benzo[e][1,4]diazepin-3-yl)-2-nitro-benzamide] | 5 µM | – |
| COc1ccccc1CC(=O)NC1N=C(c2ccccc2)c2ccccc2NC1=O (stereo not drawn) [Example 60, 2-(2-Methoxy-phenyl)-N-(2-oxo-5-phenyl-2,3-dihydro-1H-benzo[e][1,4]diazepin-3-yl)-acetamide] | 5 µM | – |
| COc1cccc(CC(=O)NC2N=C(c3ccccc3)c3ccccc3NC2=O)c1 (stereo not drawn) [Example 61, 2-(3-Methoxy-phenyl)-N-(2-oxo-5-phenyl-2,3-dihydro-1H-benzo[e][1,4]diazepin-3-yl)-acetamide] | 3 µM | – |
| COc1ccc(CC(=O)NC2N=C(c3ccccc3)c3ccccc3NC2=O)cc1 (stereo not drawn) [Example 62, 2-(4-Methoxy-phenyl)-N-(2-oxo-5-phenyl-2,3-dihydro-1H-benzo[e][1,4]diazepin-3-yl)-acetamide] | 1.5 µM | – |
| O=C(Cc1ccc([N+](=O)[O-])cc1)NC1N=C(c2ccccc2)c2ccccc2NC1=O (stereo not drawn) [Example 63, 2-(4-Nitro-phenyl)-N-(2-oxo-5-phenyl-2,3-dihydro-1H-benzo[e][1,4]diazepin-3-yl)-acetamide] | 1.7 µM | – |
| O=C(Cc1cccc([N+](=O)[O-])c1)NC1N=C(c2ccccc2)c2ccccc2NC1=O (stereo not drawn) [Example 64, 2-(3-Nitro-phenyl)-N-(2-oxo-5-phenyl-2,3-dihydro-1H-benzo[e][1,4]diazepin-3-yl)-acetamide] | 1 µM | – |
| O=C(Cc1ccccc1C(F)(F)F)NC1N=C(c2ccccc2)c2ccccc2NC1=O (stereo not drawn) [Example 65, N-(2-Oxo-5-phenyl-2,3-dihydro-1H-benzo[e][1,4]diazepin-3-yl)-2-(2-trifluoromethyl-phenyl)-acetamide] | 2 µM | – |
| O=C(Cc1cccc(C(F)(F)F)c1)NC1N=C(c2ccccc2)c2ccccc2NC1=O (stereo not drawn) [Example 66, N-(2-Oxo-5-phenyl-2,3-dihydro-1H-benzo[e][1,4]diazepin-3-yl)-2-(3-trifluoromethyl-phenyl)-acetamide] | 1.5 µM | – |
| O=C(Cc1ccc(C(F)(F)F)cc1)NC1N=C(c2ccccc2)c2ccccc2NC1=O (stereo not drawn) [Example 67, N-(2-Oxo-5-phenyl-2,3-dihydro-1H-benzo[e][1,4]diazepin-3-yl)-2-(4-trifluoromethyl-phenyl)-acetamide] | 1.5 µM | – |
| COc1ccccc1NC(=O)NC1N=C(c2ccccc2)c2ccccc2NC1=O (stereo not drawn) [Example 68, (2-Methoxy-phenyl)-3-(2-oxo-5-phenyl-2,3-dihydro-1H-benzo[e][1,4]diazepin-3-yl)-urea] | – | IC50 (RSV; Table 1, read-out: XTT IC50): 1 µM |
| O=C(Nc1ccccc1[N+](=O)[O-])NC1N=C(c2ccccc2)c2ccccc2NC1=O (stereo not drawn) [Example 69, 1-(2-Nitro-phenyl)-3-(2-oxo-5-phenyl-2,3-dihydro-1H-benzo[e][1,4]diazepin-3-yl)-urea] | 1.5 µM | – |
| O=C(Nc1ccccc1Cl)NC1N=C(c2ccccc2)c2ccccc2NC1=O (stereo not drawn) [Example 70, 1-(2-Chloro-phenyl)-3-(2-oxo-5-phenyl-2,3-dihydro-1H-benzo[e][1,4]diazepin-3-yl)-urea] | 1.5 µM | – |
| O=C(Nc1ccc(Cl)cc1)NC1N=C(c2ccccc2)c2ccccc2NC1=O (stereo not drawn) [Example 71, 1-(4-Chloro-phenyl)-3-(2-oxo-5-phenyl-2,3-dihydro-1H-benzo[e][1,4]diazepin-3-yl)-urea] | – | IC50 (RSV; human respiratory syncytial virus, 144 h, Table 1, read-out: XTT IC50): 3 µM |
| Cc1ccc(NC(=O)NC2N=C(c3ccccc3)c3ccccc3NC2=O)cc1 (stereo not drawn) [Example 72, 1-(2-oxo-5-phenyl-2,3-dihydro-1H-benzo[e][1,4]diazepin-3-yl)-3-p-tolyl-urea] | 1.5 µM | – |
| O=C(Nc1ccccc1F)NC1N=C(c2ccccc2)c2ccccc2NC1=O (stereo not drawn) [Example 73a, 1-(2-Fluoro-phenyl)-3-(2-oxo-5-phenyl-2,3-dihydro-1H-benzo[e][1,4]diazepin-3-yl)-urea] | 1 µM | – |
| O=C(Nc1ccccc1F)N[C@H]1N=C(c2ccccc2)c2ccccc2NC1=O [Example 73b, (S)-1-(2-Fluoro-phenyl)-3-(2-oxo-5-phenyl-2,3-dihydro-1H-benzo[e][1,4]diazepin-3-yl)-urea] | 0.7 µM | – |
| O=C(Nc1ccc(F)cc1)NC1N=C(c2ccccc2)c2ccccc2NC1=O (stereo not drawn) [Example 74, 1-(4-Fluoro-phenyl)-3-(2-oxo-5-phenyl-2,3-dihydro-1H-benzo[e][1,4]diazepin-3-yl)-urea] | 1.5 µM | – |
